PubChem BioAssay (NCI)
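Assay format: 96-well plates, 48-hour exposure. At the GI50, growth is halved. TGI: concentration producing complete growth inhibition.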

Legend:
Assay in all cases: NCI-60 cell line screen, 48 h
786-0 renal = test system: 786-0 renal
A498 renal = test system: A498 renal
A549 NSCLC = test system: A549 NSCLC
ACHN renal = test system: ACHN renal
BT-549 breast = test system: BT-549 breast
CAKI-1 renal = test system: CAKI-1 renal
CCRF-CEM leukemia = test system: CCRF-CEM leukemia
COLO 205 colon = test system: COLO 205 colon
DU-145 prostate = test system: DU-145 prostate
EKVX NSCLC = test system: EKVX NSCLC
HCC-2998 colon = test system: HCC-2998 colon
HCT-116 colon = test system: HCT-116 colon
HCT-15 colon = test system: HCT-15 colon
HL-60(TB) leukemia = test system: HL-60(TB) leukemia
HOP-62 NSCLC = test system: HOP-62 NSCLC
HOP-92 NSCLC = test system: HOP-92 NSCLC
HS 578T breast = test system: HS 578T breast
HT29 colon = test system: HT29 colon
IGROV1 ovarian = test system: IGROV1 ovarian
K-562 leukemia = test system: K-562 leukemia
KM12 colon = test system: KM12 colon
LOX IMVI melanoma = test system: LOX IMVI melanoma
M14 melanoma = test system: M14 melanoma
MALME-3M melanoma = test system: MALME-3M melanoma
MCF7 breast = test system: MCF7 breast
MDA-MB-231 breast = test system: MDA-MB-231 breast
MDA-MB-435 = test system: MDA-MB-435
MOLT-4 leukemia = test system: MOLT-4 leukemia
NCI-H226 lung = test system: NCI-H226 lung
NCI-H23 lung = test system: NCI-H23 lung
NCI-H460 lung = test system: NCI-H460 lung
NCI-H522 lung = test system: NCI-H522 lung
NCI/ADR-RES ovarian = test system: NCI/ADR-RES ovarian
OVCAR-3 ovarian = test system: OVCAR-3 ovarian
OVCAR-4 ovarian = test system: OVCAR-4 ovarian
OVCAR-5 ovarian = test system: OVCAR-5 ovarian
OVCAR-8 ovarian = test system: OVCAR-8 ovarian
PC-3 prostate = test system: PC-3 prostate
RPMI-8226 leukemia = test system: RPMI-8226 leukemia
RXF 393 renal = test system: RXF 393 renal
SF-268 CNS = test system: SF-268 CNS
SF-295 CNS = test system: SF-295 CNS
SK-MEL-2 melanoma = test system: SK-MEL-2 melanoma
SK-MEL-28 melanoma = test system: SK-MEL-28 melanoma
SK-MEL-5 melanoma = test system: SK-MEL-5 melanoma
SK-OV-3 ovarian = test system: SK-OV-3 ovarian
SN12C renal = test system: SN12C renal
SNB-19 CNS = test system: SNB-19 CNS
SNB-75 CNS = test system: SNB-75 CNS
SR leukemia = test system: SR leukemia
SW-620 colon = test system: SW-620 colon
T-47D breast = test system: T-47D breast
TK-10 renal = test system: TK-10 renal
U251 CNS = test system: U251 CNS
UACC-257 melanoma = test system: UACC-257 melanoma
UACC-62 melanoma = test system: UACC-62 melanoma
UO-31 renal = test system: UO-31 renal

## CC/C=C\C[C@H](O)C/C=C1/C(=O)C=C[C@@H]1C/C=C\CCCC(=O)NC(C)C
786-0 renal
  GI50: 2.47 µM
  TGI: 5.4 µM
A498 renal
  GI50: 5.16 µM
  TGI: 16.3 µM
A549 NSCLC
  GI50: 3.24 µM
  TGI: 9.46 µM
ACHN renal
  GI50: 1.84 µM
  TGI: 3.49 µM
BT-549 breast
  GI50: 2.45 µM
  TGI: 6.13 µM
CAKI-1 renal
  GI50: 2.08 µM
  TGI: 4.39 µM
CCRF-CEM leukemia
  GI50: 2.09 µM
  TGI: 8.38 µM
COLO 205 colon
  GI50: 2.51 µM
  TGI: 5.44 µM
DU-145 prostate
  GI50: 3.22 µM
  TGI: 13.5 µM
EKVX NSCLC
  GI50: 4 µM
  TGI: 15 µM
HCC-2998 colon
  GI50: 1.87 µM
  TGI: 3.42 µM
HCT-116 colon
  GI50: 1.73 µM
  TGI: 3.59 µM
HCT-15 colon
  GI50: 2.02 µM
  TGI: 4.92 µM
HL-60(TB) leukemia
  GI50: 2.67 µM
  TGI: 9.1 µM
HOP-62 NSCLC
  GI50: 2.65 µM
  TGI: 6.59 µM
HOP-92 NSCLC
  GI50: 2.75 µM
  TGI: 6.08 µM
HS 578T breast
  GI50: 7.74 µM
  TGI: 49.5 µM
HT29 colon
  GI50: 2.23 µM
  TGI: 4.11 µM
IGROV1 ovarian
  GI50: 2.94 µM
  TGI: 10 µM
K-562 leukemia
  GI50: 2.86 µM
  TGI: 38.9 µM
KM12 colon
  GI50: 1.91 µM
  TGI: 4.89 µM
LOX IMVI melanoma
  GI50: 1.06 µM
  TGI: 2.5 µM
M14 melanoma
  GI50: 2.87 µM
  TGI: 10 µM
MALME-3M melanoma
  GI50: 2.4 µM
  TGI: 6.69 µM
MCF7 breast
  GI50: 2.18 µM
  TGI: 13.9 µM
MDA-MB-231 breast
  GI50: 4.72 µM
  TGI: 16.7 µM
MDA-MB-435
  GI50: 2.3 µM
  TGI: 6.51 µM
MOLT-4 leukemia
  GI50: 2.72 µM
  TGI: 11 µM
NCI-H226 lung
  GI50: 2.31 µM
  TGI: 4.74 µM
NCI-H23 lung
  GI50: 2.33 µM
  TGI: 6.09 µM
NCI-H460 lung
  GI50: 2.43 µM
  TGI: 5.79 µM
NCI-H522 lung
  GI50: 1.59 µM
  TGI: 3.24 µM
NCI/ADR-RES ovarian
  GI50: 3.28 µM
  TGI: 13.6 µM
OVCAR-3 ovarian
  GI50: 2.63 µM
  TGI: 8.41 µM
OVCAR-4 ovarian
  GI50: 4.27 µM
  TGI: 18.4 µM
OVCAR-5 ovarian
  GI50: 4.55 µM
  TGI: 16.6 µM
OVCAR-8 ovarian
  GI50: 3.04 µM
  TGI: 10.7 µM
PC-3 prostate
  GI50: 2.52 µM
  TGI: 6.24 µM
RPMI-8226 leukemia
  GI50: 2.73 µM
  TGI: 7.02 µM
RXF 393 renal
  GI50: 2.14 µM
  TGI: 3.94 µM
SF-268 CNS
  GI50: 3 µM
  TGI: 13.3 µM
SF-295 CNS
  GI50: 2.42 µM
  TGI: 5.69 µM
SK-MEL-2 melanoma
  GI50: 2.52 µM
  TGI: 6.88 µM
SK-MEL-28 melanoma
  GI50: 2.14 µM
  TGI: 4.98 µM
SK-MEL-5 melanoma
  GI50: 1.8 µM
  TGI: 3.35 µM
SK-OV-3 ovarian
  GI50: 4.57 µM
  TGI: 14.8 µM
SN12C renal
  GI50: 2.51 µM
  TGI: 6.35 µM
SNB-19 CNS
  GI50: 8.75 µM
  TGI: 22.6 µM
SNB-75 CNS
  GI50: 8.2 µM
  TGI: 21 µM
SR leukemia
  GI50: 2.43 µM
  TGI: 8.33 µM
SW-620 colon
  GI50: 3.16 µM
  TGI: 10.8 µM
T-47D breast
  GI50: 4.19 µM
  TGI: 19.2 µM
TK-10 renal
  GI50: 3.73 µM
  TGI: 9.64 µM
U251 CNS
  GI50: 2.61 µM
  TGI: 7.08 µM
UACC-257 melanoma
  GI50: 2.17 µM
  TGI: 6.22 µM
UACC-62 melanoma
  GI50: 1.77 µM
  TGI: 4.22 µM
UO-31 renal
  GI50: 1.94 µM
  TGI: 4.11 µM
